From patent US20050101595A1, “N-containing cycloalkyl-substituted amino-thiazole derivatives and pharmaceutical compositions for inhibiting cell proliferation and methods for their use” (PFIZER INC., priority 2003, published 2005)
Structures can show the parent of a compound that is named as a salt. Where two headings read alike, the source gives them in different places.

Experiments:
CDK2/Cyclin A = CDK2/Cyclin A (Homo sapiens, UniProt P24941); assay: Inhibition of CDK2/Cyclin A Retinoblastoma Kinase Activity; format: biochemical; settings: for Ki: apparent Ki, CDK2/proteolyzed cyclin A, Rb fragment substrate, 25 μM ATP; for CDK2 % Inhibition At 0.03 μM: Table 2
Summary of the method: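 Radiometric filter-binding readout of phosphate transfer to an Rb substrate fragment by purified CDK2/truncated cyclin A at 10 or 19 nM. Run at pH 7.4 with 25 μM ATP, 30 °C, 60–75 min, linear rates; background without enzyme subtracted, Ki from competitive-inhibition models.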

[1] = molecular target: human CDK4 and genetically truncated (1-264) cyclin D3 (Homo sapiens, UniProt P11802); assay: Inhibition of CDK4/Cyclin D Retinoblastoma Kinase Activity; format: biochemical; settings: for Ki: apparent Ki, CDK4/truncated cyclin D3, Rb fragment substrate, 25 μM ATP
Summary of the method: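 Apparent Ki values come from competitive or competitive tight-binding inhibition fits of background-corrected 32P/33P incorporation into His-tagged Rb fragment (386-928), captured on nitrocellulose. Reaction: 5 nM insect-cell-expressed human CDK4 with cyclin D3 (1-264), 25 μM ATP, pH 7.4 HEPES, 2% DMSO, 30° C., 20 min, extended to 60 min for tight-binding inhibitors.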

HCT-116 cell line = assay: Inhibition of cell growth, tetrazolium salt (MTT) assay; format: cell-based; settings: for IC50: Homo sapiens, HCT-116, 120 h, MTT, three to five days, read-out: HCT-116 IC50; for HCT-116 % Inhibition at 0.25 μM: 0.25 μM compound
Summary of the method: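 McCoy's 5A cultures; 4 h pre-incubation; compound dilutions in 0.5% v/v DMSO; 3–5 d, 37° C, 5% CO2; MTT 0.2 mg/mL final, 4 h; formazan dissolved in DMSO, A540; vs 0.5% DMSO vehicle.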

[2] = 0.1 μM compound, HCT-116, Table 4

human CDK4 and genetically truncated (1-264) cyclin D3, sequence (P11802 whole entry, the tested form may be a part): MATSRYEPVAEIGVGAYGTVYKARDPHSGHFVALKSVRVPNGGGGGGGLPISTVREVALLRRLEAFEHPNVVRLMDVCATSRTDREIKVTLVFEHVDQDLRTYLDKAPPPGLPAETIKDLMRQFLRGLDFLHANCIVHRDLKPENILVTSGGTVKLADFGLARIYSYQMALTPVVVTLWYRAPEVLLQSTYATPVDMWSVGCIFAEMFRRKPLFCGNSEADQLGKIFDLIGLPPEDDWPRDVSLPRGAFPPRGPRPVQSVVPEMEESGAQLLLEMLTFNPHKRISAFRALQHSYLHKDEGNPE
human CDK4 and genetically truncated (1-264) cyclin D3, sequence (P30281 1-264 partner): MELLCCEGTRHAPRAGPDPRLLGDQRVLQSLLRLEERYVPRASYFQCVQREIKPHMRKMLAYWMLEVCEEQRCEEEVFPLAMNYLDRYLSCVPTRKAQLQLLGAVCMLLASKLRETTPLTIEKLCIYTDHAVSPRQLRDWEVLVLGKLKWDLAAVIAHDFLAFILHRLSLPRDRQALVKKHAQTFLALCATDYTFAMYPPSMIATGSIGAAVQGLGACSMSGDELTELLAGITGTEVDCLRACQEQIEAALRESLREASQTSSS

Q: With `CN(CCS(=O)(=O)N1CCC(Nc2nc(N)c(C(=O)c3c(F)cccc3F)s2)CC1)Cc1ccccc1` [Example K39, (4-Amino-2-{1-[2-(benzyl-methyl-amino)-ethanesulfonyl]-piperidin-4-ylamino}-thiazol-5-yl)-(2,6-difluoro-phenyl)-methanone] as the compound, how does the Ki (CDK2/Cyclin A) read?
A: 1.4 nM

Q: What about the Ki [1] of the same compound?
A: 1.8 nM

Q: What about the IC50 (HCT-116 cell line; first HCT-116 column (c4)) of the same compound?
A: 44 nM

Q: And the IC50 (HCT-116 cell line; second HCT-116 column (c5))?
A: 170 nM

Q: How did the “CDK2 % Inhibition At 0.03 μM” value (CDK2/Cyclin A; 0.03 μM compound) turn out when `Nc1nc(NC2CCN(C(=O)Nc3cccc(C(F)(F)F)c3)CC2)sc1C(=O)c1c(F)cccc1F` [Example O16] was run?
A: 34%

Q: What about the “CDK4 % Inhibition at 0.03 μM” value ([1]; 0.03 μM compound, Table 2) of the same compound?
A: 5%

Q: What about the “HCT-116 % Inhibition at 0.25 μM” value (HCT-116 cell line; HCT-116, Table 2) of the same compound?
A: 6%

Q: For `Nc1nc(NC2CCN(C(=O)c3ccc(C(F)(F)F)cc3)CC2)sc1C(=O)c1c(F)cccc1F` [Example Q33], which “CDK2 % Inhibition at 0.03 μM” value (CDK2/Cyclin A; 0.03 μM compound, Table 4) is on record?
A: 23%

Q: And the “CDK4 % Inhibition at 0.03 μM” value ([1]; 0.03 μM compound, Table 4)?
A: 65%

Q: What about the “HCT-116 % Inhibition at 0.1 μM” value (HCT-116 cell line; [2]) of the same compound?
A: 0%

Q: What about the “HCT-116 % Inhibition at 0.25 μM” value (HCT-116 cell line; HCT-116, Table 4) of the same compound?
A: 16%

Q: What does the source list for `Nc1nc(NC2CCN(C(=O)CC3C=CCC3)CC2)sc1C(=O)c1c(F)cccc1F` (centres unmarked) [Example R98]?
A: CDK2 % Inhibition at 0.03 μM (CDK2/Cyclin A; at 0.03 μM): 8%; CDK4 % Inhibition at 0.03 μM ([1]; at 0.03 μM): 11%; HCT-116 % Inhibition at 0.1 μM (HCT-116 cell line; HCT-116 cells, at 0.1 μM): 0%; HCT-116 5 Inhibition at 0.25 μM (HCT-116 cell line; HCT-116 cells, at 0.25 μM): 44

Q: Which Ki (CDK2/Cyclin A) does the source give for `CCCN(CCCS(=O)(=O)N1CCC(Nc2nc(N)c(C(=O)c3c(F)cccc3F)s2)CC1)CC1CC1` [Example K6, 1-(4-Amino-2-{1-[3-(cyclopropylmethyl-propyl-amino)propane-1-sulfonyl]-piperidin-4-ylamino}-thiazol-5-yl)-1-(2,6-difluoro-phenyl)-methanone.] here?
A: 5.8 nM

Q: What about the Ki [1] of the same compound?
A: 1.5 nM

Q: What about the IC50 (HCT-116 cell line; first HCT-116 column (c4)) of the same compound?
A: 180 nM

Q: What about the IC50 (HCT-116 cell line; second HCT-116 column (c5)) of the same compound?
A: 800 nM

Q: Which results are given for `Nc1nc(NC2CCN(C(=O)c3cccc(Cl)c3)CC2)sc1C(=O)c1c(F)cccc1F` [Example Q19]?
A: CDK2 % Inhibition at 0.03 μM (CDK2/Cyclin A; 0.03 μM compound, Table 4): 21%; CDK4 % Inhibition at 0.03 μM ([1]; 0.03 μM compound, Table 4): 59%; HCT-116 % Inhibition at 0.1 μM (HCT-116 cell line; [2]): 32%; HCT-116 % Inhibition at 0.25 μM (HCT-116 cell line; HCT-116, Table 4): 83%

Q: With `Nc1nc(NC2CCN(C(=O)Nc3ccccc3Cl)CC2)sc1C(=O)c1c(F)cccc1F` [Example O6] as the compound, how does the “CDK2 % Inhibition At 0.03 μM” value (CDK2/Cyclin A; 0.03 μM compound) read?
A: 36%

Q: What about the “CDK4 % Inhibition at 0.03 μM” value ([1]; 0.03 μM compound, Table 2) of the same compound?
A: 10%

Q: And the “HCT-116 % Inhibition at 0.25 μM” value (HCT-116 cell line; HCT-116, Table 2)?
A: 12%

Q: Which results are given for `COc1ccc(S(=O)(=O)N2CCC(Nc3nc(N)c(C(=O)c4c(F)cccc4F)s3)CC2)cc1` [Example F7, 1-{4-Amino-2-[1-(4-methoxy-benzenesulfonyl)-piperidin-4-ylamino]-thiazol-5-yl}-1-(2,6-difluoro-phenyl)-methanone]?
A: Ki (CDK2/Cyclin A): 0.8 nM; Ki [1]: 2.5 nM; IC50 (HCT-116 cell line; first HCT-116 column (c4)): 190 nM; IC50 (HCT-116 cell line; second HCT-116 column (c5)): 460 nM

Q: How did the “CDK2 % Inhibition at 0.03 μM” value (CDK2/Cyclin A; 0.03 μM compound, Table 4) turn out when `Nc1nc(NC2CCN(C(=O)c3ccccc3C(F)(F)F)CC2)sc1C(=O)c1c(F)cccc1F` [Example Q16] was run?
A: −12%

Q: And the “CDK4 % Inhibition at 0.03 μM” value ([1]; 0.03 μM compound, Table 4)?
A: 19%

Q: And the “HCT-116 % Inhibition at 0.1 μM” value (HCT-116 cell line; [2])?
A: 11%

Q: And the “HCT-116 % Inhibition at 0.25 μM” value (HCT-116 cell line; HCT-116, Table 4)?
A: 50%

Q: With `CCCCOc1ccc(C(C)(C)CC)cc1S(=O)(=O)N1CCC(Nc2nc(N)c(C(=O)c3c(F)cccc3F)s2)CC1` [Example P74] as the compound, how does the “CDK2 % Inhibition at 0.03 μM” value (CDK2/Cyclin A; 0.03 μM compound, Table 3) read?
A: −30%

Q: And the “CDK4 % Inhibition at 0.03 μM” value ([1]; 0.03 μM compound, Table 3)?
A: 4%

Q: What about the “HCT-116 % Inhibition at 0.1 μM” value (HCT-116 cell line; 0.1 μM compound, HCT-116, Table 3) of the same compound?
A: 19%

Q: What about the “HCT-116 % Inhibition at 0.25 μM” value (HCT-116 cell line; HCT-116, Table 3) of the same compound?
A: 27%

Q: What does the source list for `CC(=O)N(C)C1CCN(CCCS(=O)(=O)N2CCC(Nc3nc(N)c(C(=O)c4c(F)cccc4F)s3)CC2)C1` (centres unmarked) [Example K20, N-{1-[3-(4-{4-Amino-5-[1-(2,6-difluoro-phenyl)-methanoyl]-thiazol-2-ylamino}-piperidine-1-sulfonyl)-propyl]-pyrrolidin-3-yl}-N-methyl-acetamide]?
A: Ki (CDK2/Cyclin A): 4.8 nM; Ki [1]: 1.5 nM; IC50 (HCT-116 cell line; first HCT-116 column (c4)): 2000 nM; IC50 (HCT-116 cell line; second HCT-116 column (c5)): 5000 nM

Q: `Cn1ccnc1-c1ccc(S(=O)(=O)N2CCC(Nc3nc(N)c(C(=O)c4c(F)cccc4F)s3)CC2)cn1` [Example I3, 1-(4-Amino-2-{1-[6-(1-methyl-1H-imidazol-2-yl)-pyridine-3-sulfonyl]-piperidin-4-ylamino}-thiazol-5-yl)-1-(2,6-difluoro-phenyl)-methanone Trifluoroacetic Acid Salt] was tested. Which Ki (CDK2/Cyclin A) did it give?
A: 1.7 nM

Q: And the Ki [1]?
A: 2 nM

Q: What about the IC50 (HCT-116 cell line; first HCT-116 column (c4)) of the same compound?
A: 160 nM

Q: And the IC50 (HCT-116 cell line; second HCT-116 column (c5))?
A: 500 nM

Q: What does the source list for `CN1CC[C@@H](Oc2ccc(S(=O)(=O)N3CCC(Nc4nc(N)c(C(=O)c5c(F)cccc5F)s4)CC3)cn2)C1` [Example H27, (4-Amino-2-{1-[6-(1-methyl-pyrrolidin-3R-yloxy)-pyridine-3-sulfonyl]-piperidin-4-ylamino}-thiazol-5-yl)-(2,6-difluoro-phenyl)-methanone Hydrochloride]?
A: Ki (CDK2/Cyclin A): 0.35 nM; Ki [1]: 0.97 nM; IC50 (HCT-116 cell line; first HCT-116 column (c4)): 80 nM; IC50 (HCT-116 cell line; second HCT-116 column (c5)): 290 nM
